Laboratory results as given in PubChem BioAssay AID1919005 (Molecular Pharmacology Branch, DTP, NCI, 2023).
Several values for one entry are separate records, joined by “and”; a condition that tells them apart may be missing. Equal values may be shown once.

System: 855422-203-R-J1-PDC complex spheroid growth
Test: Anticancer human tumor 855422-203-R-J1-PDC patient-derived bladder carcinoma cell line growth inhibition [AhR]
Settings: for viability, T/C: stronger effect = lower value
Procedure, shortened: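 Complex tumor spheroids co-cultured with HUVEC and human MSC stroma; AhR antagonists tested in combination with standard-of-care and investigational agents. Top concentration at or near clinical Cmax (else 10 microM), half-log dilutions; growth expressed as percent test/control.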

[1] = curve of first compound, second compound 0.1 µM
[2] = curve of first compound, second compound 0.316 µM
[3] = curve of first compound, second compound 1 µM
[4] = curve of first compound, second compound 3.16 µM
[5] = curve of first compound, second compound 10 µM
[6] = second compound 0.1 µM, first compound 0.0316 µM
[7] = second compound 0.1 µM, first compound 0.1 µM
[8] = second compound 0.1 µM, first compound 0.316 µM
[9] = second compound 0.1 µM, first compound 1 µM
[10] = second compound 0.1 µM, first compound 3.16 µM
[11] = second compound 0.1 µM, first compound 10 µM
[12] = second compound 0.316 µM, first compound 0.0316 µM
[13] = second compound 0.316 µM, first compound 0.1 µM
[14] = second compound 0.316 µM, first compound 0.316 µM
[15] = second compound 0.316 µM, first compound 1 µM
[16] = second compound 0.316 µM, first compound 3.16 µM
[17] = second compound 0.316 µM, first compound 10 µM
[18] = second compound 1 µM, first compound 0.0316 µM
[19] = second compound 1 µM, first compound 0.1 µM
[20] = second compound 1 µM, first compound 0.316 µM
[21] = second compound 1 µM, first compound 1 µM
[22] = second compound 1 µM, first compound 3.16 µM
[23] = second compound 1 µM, first compound 10 µM
[24] = second compound 3.16 µM, first compound 0.0316 µM
[25] = second compound 3.16 µM, first compound 0.1 µM
[26] = second compound 3.16 µM, first compound 0.316 µM
[27] = second compound 3.16 µM, first compound 1 µM
[28] = second compound 3.16 µM, first compound 3.16 µM
[29] = second compound 3.16 µM, first compound 10 µM
[30] = second compound 10 µM, first compound 0.0316 µM
[31] = second compound 10 µM, first compound 0.1 µM
[32] = second compound 10 µM, first compound 0.316 µM
[33] = second compound 10 µM, first compound 1 µM
[34] = second compound 10 µM, first compound 3.16 µM
[35] = second compound 10 µM, first compound 10 µM
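Also: spheroids exposed to agents for seven days before readout.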
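For viability, T/C in this document: percent of DMSO vehicle control luminescence viability.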

SMILES	IC50 [1] [µM]	IC50 [2] [µM]	IC50 [3] [µM]	IC50 [4] [µM]	IC50 [5] [µM]	viability, T/C [6] [%]	viability, T/C [7] [%]	viability, T/C [8] [%]	viability, T/C [9] [%]	viability, T/C [12] [%]	viability, T/C [13] [%]	viability, T/C [14] [%]	viability, T/C [15] [%]	viability, T/C [18] [%]	viability, T/C [19] [%]	viability, T/C [20] [%]	viability, T/C [21] [%]	viability, T/C [24] [%]	viability, T/C [25] [%]	viability, T/C [26] [%]	other results
CC1(C)CCC(CN2CCN(c3ccc(C(=O)NS(=O)(=O)c4ccc(NCC5CCOCC5)c([N+](=O)[O-])c4)c(Oc4cnc5[nH]ccc5c4)c3)CC2)=C(c2ccc(Cl)cc2)C1 + Cc1cncc(-c2nc(NCCc3c[nH]c4ccccc34)c3ncn(C(C)C)c3n2)c1	6.14	5.81	5.45	4.53	< 0.0316	93.9	92.2	98.1	117	94.2	91.1	85.8	90.3	83	96.7	83.7	76.7	76.2	80.7	77.7	viability, T/C [10]: 108%; viability, T/C [11]: 11.9%; viability, T/C [16]: 98.2%; viability, T/C [17]: 12.6%; viability, T/C [22]: 84.8%; viability, T/C [23]: 11.3%; viability, T/C [27]: 60.8%; viability, T/C [28]: 69.5%; viability, T/C [29]: 13.8%; viability, T/C [30]: 38%; viability, T/C [31]: 30.6%; viability, T/C [32]: 22.1%; viability, T/C [33]: 14.7%; viability, T/C [34]: 24.5%; viability, T/C [35]: 10.5%
CC1COCCN1c1cc(-c2ccnn2C)c2ccnc(-c3ccn[nH]3)c2n1 (configuration not stated) + CC(CO)NC(=O)c1cc(-c2ccc(Cl)cc2)nn(-c2cnn(C)c2)c1=O	0.444	0.347	0.298	0.237	0.178	93.2	94.2	61.4	22.8	78.5	95.3	52.5	21.1	88	84.9	47.9	17.6	90	76.5	41.2	viability, T/C (second compound 0.1 µM, first compound 0.00316 µM): 94.2%; viability, T/C (second compound 0.1 µM, first compound 0.01 µM): 85%; viability, T/C (second compound 0.316 µM, first compound 0.00316 µM): 94.5%; viability, T/C (second compound 0.316 µM, first compound 0.01 µM): 87.4%; viability, T/C (second compound 1 µM, first compound 0.00316 µM): 97.3%; viability, T/C (second compound 1 µM, first compound 0.01 µM): 89.4%; viability, T/C (second compound 3.16 µM, first compound 0.00316 µM): 85.7%; viability, T/C (second compound 3.16 µM, first compound 0.01 µM): 91.8%; viability, T/C [27]: 17.7%; viability, T/C (second compound 10 µM, first compound 0.00316 µM): 85.5%; viability, T/C (second compound 10 µM, first compound 0.01 µM): 94.7%; viability, T/C [30]: 78.5%; viability, T/C [31]: 68.9%; viability, T/C [32]: 32.2%; viability, T/C [33]: 19.8%
COc1ccc([C@@H](O)c2cc(-c3ncnc4cc(N5CCOCC5)ccc34)c(F)cc2Cl)nn1 + Cc1ccccc1N=Nc1ccc(NC(=O)c2ccnn2C)c(C)c1	> 10	> 10	> 10	> 10	6.18	99.2	108	98.3	96.5	107	111	99.8	102	107	102	106	96.9	95.9	100	95.7	viability, T/C [10]: 87.3%; viability, T/C [11]: 71.3%; viability, T/C [16]: 90.1%; viability, T/C [17]: 70.3%; viability, T/C [22]: 87.8%; viability, T/C [23]: 63.1%; viability, T/C [27]: 98.6%; viability, T/C [28]: 77.1%; viability, T/C [29]: 54.8%; viability, T/C [30]: 87.8%; viability, T/C [31]: 91.6%; viability, T/C [32]: 86.1%; viability, T/C [33]: 86%; viability, T/C [34]: 62%; viability, T/C [35]: 41.4%
O=C(c1cc(Cc2n[nH]c(=O)c3ccccc23)ccc1F)N1CCN(C(=O)C2CC2)CC1																					viability, T/C (compound 0.0316 µM): 99% and 105% and 111%; viability, T/C (compound 0.1 µM): 112% and 105% and 129%; viability, T/C (compound 0.316 µM): 111% and 99% and 105%; viability, T/C (compound 1 µM): 105% and 98.5% and 116%; viability, T/C (compound 3.16 µM): 114% and 103% and 106%; viability, T/C (compound 10 µM): 87.1% and 93.6% and 102%; IC50 (curve of compound): > 10 µM
O=C(C=Cc1cccc(S(=O)(=O)Nc2ccccc2)c1)NO + Cc1ccccc1N=Nc1ccc(NC(=O)c2ccnn2C)c(C)c1	3.99	4.23	4.26	3.75	3.25	104	107	109	111	105	114	111	106	97.9	109	111	105	96.8	95.6	104	viability, T/C [10]: 61.7%; viability, T/C [11]: 3.76%; viability, T/C [16]: 65.2%; viability, T/C [17]: 5.12%; viability, T/C [22]: 66.2%; viability, T/C [23]: 3.95%; viability, T/C [27]: 96.5%; viability, T/C [28]: 58.1%; viability, T/C [29]: 3.54%; viability, T/C [30]: 87.2%; viability, T/C [31]: 95.4%; viability, T/C [32]: 88.7%; viability, T/C [33]: 79.6%; viability, T/C [34]: 51.3%; viability, T/C [35]: 3.79%
